Test results from patent US9833497B2, “Human originated EGF domain proteins and use of the same” (CHENGDU SOURCEBIO LIMITED-LIABILITY COMPANY, priority 2013, dated 2017).

Key:
Type in all cases: cell-based
E. coli DH5α = experiment: Antibacterial activity: MIC and growth curve against E. coli DH5α in 96-well plate; details: minimal inhibitory concentration against E. coli DH5α; 96-well plate, 5×10^5 CFU/mL, 37° C., judged after 8 h
Summary of the method: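 MIC taken as lowest protein level with no bacterial growth, tracked by A600 every 30 min during 37 °C, 175 rpm culture. Two-fold protein series 50-12.5 μg/mL final, triplicate wells, against 5×10^5 CFU/mL of LB-washed mid-log cells.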

E. coli BL21 = experiment: MIC against Gram-negative bacteria: E. coli BL21; details: 5×10^5 CFU/mL
Summary of the method: (§1)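 Broth microdilution, LB medium, final inoculum 5×10^5 CFU/mL from McFarland 0.5 cultures. Recombinant human EGF domain proteins tested in two-fold steps, n=3. MIC: lowest concentration, no growth.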

Pseudomonas aeruginosa = experiment: MIC against Gram-negative bacteria: Pseudomonas aeruginosa; details: 5×10^5 CFU/mL
Summary of the method: as §1

Klebsiella pneumonia = experiment: MIC against Gram-negative bacteria: Klebsiella pneumonia; details: 5×10^5 CFU/mL
Summary of the method: as §1

Enterobacter cloacae = experiment: MIC against Gram-negative bacteria: Enterobacter cloacae; details: 5×10^5 CFU/mL
Summary of the method: as §1

Aeromonas hydrophila = experiment: MIC against Gram-negative bacteria: Aeromonas hydrophila; details: 5×10^5 CFU/mL
Summary of the method: as §1

Citrobacter diversus = experiment: MIC against Gram-negative bacteria: Citrobacter diversus; details: 5×10^5 CFU/mL
Summary of the method: as §1

Moraxella catarrhalis = experiment: MIC against Gram-negative bacteria: Moraxella catarrhalis; details: 5×10^5 CFU/mL
Summary of the method: as §1

Proteus mirabilis = experiment: MIC against Gram-negative bacteria: Proteus mirabilis; details: 5×10^5 CFU/mL
Summary of the method: as §1

Proteus vulgaris = experiment: MIC against Gram-negative bacteria: Proteus vulgaris; details: 5×10^5 CFU/mL
Summary of the method: as §1

Serratia marcescens = experiment: MIC against Gram-negative bacteria: Serratia marcescens; details: 5×10^5 CFU/mL
Summary of the method: as §1

[1] = E. coli BL21, 96-well plate, 37° C., 10 h
[2] = Pseudomonas aeruginosa, 96-well plate, 37° C., 10 h
[3] = Klebsiella pneumonia, 96-well plate, 37° C., 10 h
[4] = Enterobacter cloacae, 96-well plate, 37° C., 10 h
[5] = Aeromonas hydrophila, 96-well plate, 37° C., 10 h
[6] = Citrobacter diversus, 96-well plate, 37° C., 10 h
[7] = Moraxella catarrhalis, 96-well plate, 37° C., 10 h
[8] = Proteus mirabilis, 96-well plate, 37° C., 10 h
[9] = Proteus vulgaris, 96-well plate, 37° C., 10 h
[10] = Serratia marcescens, 96-well plate, 37° C., 10 h
[11] = 10 h cultivation at 37° C., two-fold serial dilution

In the case of “PRT467 (ECPGGCRNGGFCNERRICECPDGFHGPHCE; listed as Homo sapiens)”, the MIC (E. coli DH5α) is reported as 12.5 µg/mL, the “MIC against E. coli BL21” value (E. coli BL21; 96-well plate, 37° C., 10 h) is reported as 12.5 µg/mL and the “MIC against P. aeruginosa” value (Pseudomonas aeruginosa; 96-well plate, 37° C., 10 h) is reported as 12.5 µg/mL. The “MIC against K. pneumonia” value (Klebsiella pneumonia; 96-well plate, 37° C., 10 h) was 25 µg/mL, the “MIC against E. cloacae” value (Enterobacter cloacae; 96-well plate, 37° C., 10 h) was 12.5 µg/mL and the “MIC against A. hydrophila” value (Aeromonas hydrophila; 96-well plate, 37° C., 10 h) was 25 µg/mL. For the same substance, the “MIC against C. diversus” value (Citrobacter diversus; 96-well plate, 37° C., 10 h) was 50 µg/mL, the “MIC against M. catarrhalis” value (Moraxella catarrhalis; 96-well plate, 37° C., 10 h) was 25 µg/mL and the “MIC against P. mirabilis” value (Proteus mirabilis; 96-well plate, 37° C., 10 h) was 12.5 µg/mL. The “MIC against P. vulgaris” value (Proteus vulgaris; 96-well plate, 37° C., 10 h) was 25 µg/mL and the “MIC against S. marcescens” value (Serratia marcescens; 96-well plate, 37° C., 10 h) was 50 µg/mL.

For “PRT770 (FRDPCDPNPCQNDGICVNVKGMASCRCISGHAFFYTGERCQ; listed as Homo sapiens)”, the MIC (E. coli DH5α) was 50 µg/mL, the “MIC (μg/mL) E. coli BL21” value (E. coli BL21; E. coli BL21, 10 h cultivation at 37° C.) was 12.5 µg/mL and the “MIC (μg/mL) P. aeruginosa” value (Pseudomonas aeruginosa; P. aeruginosa, 10 h cultivation at 37° C.) was 50 µg/mL. The “MIC (μg/mL) K. pneumonia” value (Klebsiella pneumonia; K. pneumonia, 10 h cultivation at 37° C.) was 12.5 µg/mL, the “MIC (μg/mL) E. cloacae” value (Enterobacter cloacae; E. cloacae, 10 h cultivation at 37° C.) was 50 µg/mL and the “MIC (μg/mL) A. hydrophila” value (Aeromonas hydrophila; A. hydrophila, 10 h cultivation at 37° C.) was 25 µg/mL. For the same substance, the “MIC (μg/mL) C. diversus” value (Citrobacter diversus; C. diversus, 10 h cultivation at 37° C.) was 12.5 µg/mL, the “MIC (μg/mL) M. catarrhalis” value (Moraxella catarrhalis; M. catarrhalis, 10 h cultivation at 37° C.) was 25 µg/mL and the “MIC (μg/mL) P. mirabilis” value (Proteus mirabilis; P. mirabilis, 10 h cultivation at 37° C.) was 50 µg/mL. For the same substance, the “MIC (μg/mL) P. vulgaris” value (Proteus vulgaris; P. vulgaris, 10 h cultivation at 37° C.) was 12.5 µg/mL and the “MIC (μg/mL) S. marcescens” value (Serratia marcescens; S. marcescens, 10 h cultivation at 37° C.) was 50 µg/mL.

For “PRT1260 (DINECLVNNGGCDHFCRNTVGSFECGCRKGYKLLTDERTCQ; listed as Homo sapiens)”, the MIC (E. coli DH5α) was 25 µg/mL, the “MIC against E. coli BL21” value (E. coli BL21; [1]) was 50 µg/mL and the “MIC against P. aeruginosa” value (Pseudomonas aeruginosa; [2]) was 25 µg/mL. For the same substance, the “MIC against K. pneumonia” value (Klebsiella pneumonia; [3]) was 12.5 µg/mL, the “MIC against E. cloacae” value (Enterobacter cloacae; [4]) was 25 µg/mL and the “MIC against A. hydrophila” value (Aeromonas hydrophila; [5]) was 50 µg/mL. The “MIC against C. diversus” value (Citrobacter diversus; [6]) was 12.5 µg/mL, the “MIC against M. catarrhalis” value (Moraxella catarrhalis; [7]) was 50 µg/mL and the “MIC against P. mirabilis” value (Proteus mirabilis; [8]) was 12.5 µg/mL. For the same substance, the “MIC against P. vulgaris” value (Proteus vulgaris; [9]) was 50 µg/mL and the “MIC against S. marcescens” value (Serratia marcescens; [10]) was 25 µg/mL.

For “PRT96 (AQRFCPDGSPSECHEHADCVLERDGSRSCVCAVGWAGNGILCG; listed as Homo sapiens)”, the MIC (E. coli DH5α) was 12.5 µg/mL, the “MIC (μg/mL) E. coli BL21” value (E. coli BL21; [1]) was 25 µg/mL and the “MIC (μg/mL) P. aeruginosa” value (Pseudomonas aeruginosa; [2]) was 12.5 µg/mL. For the same substance, the “MIC (μg/mL) K. pneumonia” value (Klebsiella pneumonia; [3]) was 12.5 µg/mL, the “MIC (μg/mL) E. cloacae” value (Enterobacter cloacae; [4]) was 12.5 µg/mL and the “MIC (μg/mL) A. hydrophila” value (Aeromonas hydrophila; [5]) was 12.5 µg/mL. The “MIC (μg/mL) C. diversus” value (Citrobacter diversus; [6]) was 12.5 µg/mL, the “MIC (μg/mL) M. catarrhalis” value (Moraxella catarrhalis; [7]) was 12.5 µg/mL and the “MIC (μg/mL) P. mirabilis” value (Proteus mirabilis; [8]) was 12.5 µg/mL. The “MIC (μg/mL) P. vulgaris” value (Proteus vulgaris; [9]) was 25 µg/mL and the “MIC (μg/mL) S. marcescens” value (Serratia marcescens; [10]) was 12.5 µg/mL.

In the case of “PRT1183 (NIDDCLGQPCRNGGTCIDEVDAFRCFCPSGWEGELCD; listed as Homo sapiens)”, the MIC (E. coli DH5α) is reported as 25 µg/mL, the “MIC E. coli BL21” value (E. coli BL21; [11]) is reported as 50 µg/mL and the “MIC P. aeruginosa” value (Pseudomonas aeruginosa; [11]) is reported as 25 µg/mL. For the same substance, the “MIC K. pneumonia” value (Klebsiella pneumonia; [11]) was 12.5 µg/mL, the “MIC E. cloacae” value (Enterobacter cloacae; [11]) was 50 µg/mL and the “MIC A. hydrophila” value (Aeromonas hydrophila; [11]) was 25 µg/mL. The “MIC C. diversus” value (Citrobacter diversus; [11]) was 12.5 µg/mL, the “MIC M. catarrhalis” value (Moraxella catarrhalis; [11]) was 25 µg/mL and the “MIC P. mirabilis” value (Proteus mirabilis; [11]) was 50 µg/mL. The “MIC P. vulgaris” value (Proteus vulgaris; [11]) was 25 µg/mL and the “MIC S. marcescens” value (Serratia marcescens; [11]) was 12.5 µg/mL.

With “PRT20 (QKNLCNNTGDPEMCPENGSCVPDGPGLLQCVCADGFHGYKCM; listed as Homo sapiens)” the MIC (E. coli DH5α) was 12.5 µg/mL, the “MIC (μg/mL) E. coli BL21” value (E. coli BL21; [1]) was 25 µg/mL and the “MIC (μg/mL) P. aeruginosa” value (Pseudomonas aeruginosa; [2]) was 50 µg/mL. The “MIC (μg/mL) K. pneumonia” value (Klebsiella pneumonia; [3]) was 25 µg/mL, the “MIC (μg/mL) E. cloacae” value (Enterobacter cloacae; [4]) was 12.5 µg/mL and the “MIC (μg/mL) A. hydrophila” value (Aeromonas hydrophila; [5]) was 50 µg/mL. The “MIC (μg/mL) C. diversus” value (Citrobacter diversus; [6]) was 25 µg/mL, the “MIC (μg/mL) M. catarrhalis” value (Moraxella catarrhalis; [7]) was 12.5 µg/mL and the “MIC (μg/mL) P. mirabilis” value (Proteus mirabilis; [8]) was 50 µg/mL. The “MIC (μg/mL) P. vulgaris” value (Proteus vulgaris; [9]) was 25 µg/mL and the “MIC (μg/mL) S. marcescens” value (Serratia marcescens; [10]) was 12.5 µg/mL.
